From US8709719B2, “ZNF217 a new prognostic and predictive biomarker of recurrent invasive and metastatic phenotypes in breast cancer” (Centre Leon Berard, priority 2009, dated 2014)

Assays:
MVLN cells = assay: Cell proliferation assay (BrdU) in MVLN cells; type: cell-based; settings: 200 nM OH-Tam
Method: (§1) FIG. 13: Endocrine resistance is reversed in the presence of an siRNA-ZNF217 in OH-Tam-resistant CL6.7 cells. Total protein extracts from cell lines were analyzed by Western blotting with an anti-ZNF217. Expression of α-tubulin was used as an invariant control. (A) Western-blot analysis of ZNF217 in transfected MVLN and CL6.7 cells with either scrambled RNA or with an siRNA-ZNF217. (B) Cell proliferation (BrdU test) of transfected MVLN and CL6.7 cells with either scrambled RNA or siRNA-ZNF217, in the presence or the absence of 200 nM OH-Tam. This assay was performed in steroid-free medium. P-value (Student's t-test) was considered as significant when P<0.05.
(§2) MCF7 and MDA-MB-231 breast cancer cells were purchased from ATCC and grown according to recommendations in DMEM medium supplemented with 10% fetal bovine serum (Invitrogen, Cergy Pontoise, Paris). S30 cells and their MDA-MB-231 control cells have been previously described (Levenson et al., 2003). The cellular model of endocrine resistance (MVLN and CL6.7 cells) have been previously established and described (Demirpence et al., 1993).
(§3) Proliferating cells were analyzed using the Cell Proliferation ELISA, BrdU (colorimetric) Kit (Roche, Meylan, France). […]

CL6.7 cells = assay: Cell proliferation assay (BrdU) in OH-Tam-resistant CL6.7 cells; type: cell-based; settings: 200 nM OH-Tam
Method: as §1, §2, §3

## CC/C(=C(\c1ccc(O)cc1)c1ccc(OCCN(C)C)cc1)c1ccccc1 [OH-Tam, OH-Tamoxifen]
MVLN cells; MVLN cells (OH-Tam-sensitive), steroid-free medium
  effect of OH-Tam exposure on cell proliferation: cytostatic activity
MVLN cells; MVLN cells, OH-Tam exposure combined with ZNF217 knockdown (siRNA), P=0.001
  sensitivity to endocrine therapy (cell proliferation): increased sensitivity to endocrine therapy
CL6.7 cells; CL6.7 cells (OH-Tam-resistant), steroid-free medium
  effect of OH-Tam exposure on cell proliferation: strong stimulation of CL6.7 cell proliferation
CL6.7 cells; CL6.7 cells, OH-Tam exposure combined with ZNF217 knocking-out (siRNA), P<10^-5
  inhibition of cell proliferation: 35%
